Results taken from patent publication US9562035B2, “Benzamide derivative useful as FASN inhibitors for the treatment of cancer” (Janssen Pharmaceutica NV, priority 2013, dated 2017).

Legend:
[1] = molecular target: T1, FASN Keto-reductase Domain (Homo sapiens, UniProt P49327); test: Fatty Acid Synthase Keto-Reductase Domain (FASN KR) Inhibition; assay type: biochemical; conditions: mean where tested more than once; read-out: FASN K-R Domain pIC50 (converted)
T1 construct: 10 μL hFASN enzyme (full length, 300 ng, purified in house) and 360 μM NADPH; made in house
T1 sequence (P49327 whole entry, the tested form may be a part): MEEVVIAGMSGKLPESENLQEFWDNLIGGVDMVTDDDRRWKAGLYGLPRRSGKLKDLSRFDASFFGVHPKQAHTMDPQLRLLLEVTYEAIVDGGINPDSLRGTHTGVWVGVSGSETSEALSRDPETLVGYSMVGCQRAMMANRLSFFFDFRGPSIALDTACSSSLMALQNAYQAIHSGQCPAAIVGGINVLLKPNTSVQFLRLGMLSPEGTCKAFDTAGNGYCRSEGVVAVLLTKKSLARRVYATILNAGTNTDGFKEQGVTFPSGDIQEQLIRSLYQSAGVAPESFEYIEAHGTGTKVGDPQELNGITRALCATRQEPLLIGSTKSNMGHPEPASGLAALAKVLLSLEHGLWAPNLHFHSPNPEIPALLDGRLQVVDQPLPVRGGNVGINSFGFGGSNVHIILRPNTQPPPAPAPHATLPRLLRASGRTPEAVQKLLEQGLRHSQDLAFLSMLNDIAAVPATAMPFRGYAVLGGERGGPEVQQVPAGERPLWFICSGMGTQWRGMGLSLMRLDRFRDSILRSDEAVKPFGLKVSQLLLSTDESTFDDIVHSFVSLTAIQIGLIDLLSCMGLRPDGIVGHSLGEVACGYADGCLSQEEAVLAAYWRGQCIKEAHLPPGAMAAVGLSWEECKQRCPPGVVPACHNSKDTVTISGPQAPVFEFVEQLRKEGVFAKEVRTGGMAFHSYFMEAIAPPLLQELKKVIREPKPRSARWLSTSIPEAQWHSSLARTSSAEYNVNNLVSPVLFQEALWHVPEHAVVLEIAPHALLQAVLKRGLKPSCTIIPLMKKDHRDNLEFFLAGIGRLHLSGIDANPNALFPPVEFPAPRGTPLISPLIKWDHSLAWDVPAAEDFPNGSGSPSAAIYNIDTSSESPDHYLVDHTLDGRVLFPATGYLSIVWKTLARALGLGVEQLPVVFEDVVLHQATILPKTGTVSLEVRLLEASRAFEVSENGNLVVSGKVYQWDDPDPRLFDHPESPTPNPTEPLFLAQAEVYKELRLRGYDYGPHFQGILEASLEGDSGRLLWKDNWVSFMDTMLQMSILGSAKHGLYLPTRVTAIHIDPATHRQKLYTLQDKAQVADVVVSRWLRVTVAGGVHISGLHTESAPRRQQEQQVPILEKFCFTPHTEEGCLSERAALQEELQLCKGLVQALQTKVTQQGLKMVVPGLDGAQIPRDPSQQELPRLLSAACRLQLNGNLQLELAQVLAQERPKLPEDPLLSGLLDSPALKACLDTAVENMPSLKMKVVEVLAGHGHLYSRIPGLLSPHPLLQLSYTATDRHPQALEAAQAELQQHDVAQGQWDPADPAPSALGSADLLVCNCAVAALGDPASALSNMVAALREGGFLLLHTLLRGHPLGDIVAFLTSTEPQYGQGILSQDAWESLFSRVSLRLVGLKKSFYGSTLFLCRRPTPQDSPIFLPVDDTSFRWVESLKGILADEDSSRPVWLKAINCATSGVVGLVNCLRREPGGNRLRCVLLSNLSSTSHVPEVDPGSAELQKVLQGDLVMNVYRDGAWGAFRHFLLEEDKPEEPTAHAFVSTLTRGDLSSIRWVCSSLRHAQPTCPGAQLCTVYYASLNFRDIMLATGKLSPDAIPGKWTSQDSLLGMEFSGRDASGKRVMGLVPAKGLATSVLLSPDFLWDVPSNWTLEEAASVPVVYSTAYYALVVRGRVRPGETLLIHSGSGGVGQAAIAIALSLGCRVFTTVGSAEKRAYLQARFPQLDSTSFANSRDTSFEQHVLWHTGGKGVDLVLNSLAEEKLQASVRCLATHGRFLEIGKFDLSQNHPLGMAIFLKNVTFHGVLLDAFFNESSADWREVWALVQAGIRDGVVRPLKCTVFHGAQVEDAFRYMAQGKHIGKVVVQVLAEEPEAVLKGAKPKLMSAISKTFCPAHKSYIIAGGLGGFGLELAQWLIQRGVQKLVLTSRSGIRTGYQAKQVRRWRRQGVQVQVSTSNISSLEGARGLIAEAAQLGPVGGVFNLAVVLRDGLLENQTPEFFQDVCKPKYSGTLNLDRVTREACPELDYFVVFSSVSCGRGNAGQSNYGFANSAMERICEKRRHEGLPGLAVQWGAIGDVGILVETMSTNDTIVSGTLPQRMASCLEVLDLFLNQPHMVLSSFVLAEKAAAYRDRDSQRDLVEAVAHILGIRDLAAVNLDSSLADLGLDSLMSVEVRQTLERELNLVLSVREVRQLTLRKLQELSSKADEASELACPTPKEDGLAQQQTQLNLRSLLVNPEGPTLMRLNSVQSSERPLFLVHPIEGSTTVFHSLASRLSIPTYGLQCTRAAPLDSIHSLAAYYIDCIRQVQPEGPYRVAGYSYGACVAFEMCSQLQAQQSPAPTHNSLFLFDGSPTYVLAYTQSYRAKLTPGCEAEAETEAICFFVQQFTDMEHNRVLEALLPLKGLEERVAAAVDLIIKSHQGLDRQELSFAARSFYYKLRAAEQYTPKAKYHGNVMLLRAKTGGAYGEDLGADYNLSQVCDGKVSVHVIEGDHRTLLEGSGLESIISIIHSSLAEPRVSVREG
How it was run: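 Keto-reductase activity followed as NADPH consumption (A340 drop between 0 and 20 min, room temperature) using in-house full-length hFASN, 360 μM NADPH and ethyl acetoacetate substrate (180 mM stock), pH 7.5 phosphate buffer.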

[2] = molecular target: T2, hFASN enzyme (full length) (Homo sapiens, UniProt P49327); test: Fatty Acid Synthase (FASN) Inhibition Scintillation Proximity Assay; assay type: biochemical; conditions: for IC50: mean where tested more than once, ~ = standard error of pIC50 larger than 0.5; for inhibition at 10 µM: read-out: FASN % Effect @1E−05M
T2 construct: 10 μL hFASN enzyme (full length, 300 ng, purified in house); made in house
T2 sequence (P49327 whole entry): as the sequence (P49327 whole entry, the tested form may be a part) above
How it was run: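 Eight compound concentrations (0.01–30 μM) tested in pH 7.5 phosphate buffer with DTT; human full-length enzyme converted [3H]-acetyl-CoA plus malonyl-CoA, with NADPH, over 60 min at room temperature. Hydrophobic [3H]-palmitate detected by bead proximity scintillation imaging; control-normalised data fitted for IC50/pIC50.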

[3] = tested on: A2780 ovarian cells; test: A2780 Ovarian Cell Proliferation Assay in Lipid Reduced Medium, without Palmitate; assay type: cell-based; conditions: Homo sapiens, A2780; lipid reduced medium, without palmitate, 96 h, MTT; read-out: Proliferation A2780 w/o Palmitate pIC50 (converted)
How it was run: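 A2780 cells were seeded in 10% FCS medium and switched next day to 10% lipid-reduced serum without palmitate. Compounds at 0.01–30 μM were added with 0.2% DMSO, 0.2% fatty-acid-free BSA and 0.25% ethanol final. After 96 h, MTT absorbance at 544 nm was normalized to plate controls, and IC50/pIC50 came from a 4-parameter logistic fit.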

[4] = tested on: A2780 ovarian cells; test: A2780 Ovarian Cell Proliferation Assay in Lipid Reduced Medium, with Palmitate (control); assay type: cell-based; conditions: Homo sapiens, A2780; lipid reduced medium, 25 μM palmitate, 96 h, MTT; read-out: Proliferation A2780 with Palmitate pIC50 (converted)
How it was run: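 Read-out was MTT absorbance at 544 nm after 96 h at 37 °C. Cells grown overnight in RPMI1640/10% FCS were moved to 10% lipid-reduced serum with compound plus palmitate (final 25 μM, 0.2% fatty-acid-free BSA, 0.2% DMSO). IC50 came from least-squares curve fitting, expressed as −log(IC50).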

SMILES: CCCN1CCC(C(=O)Nc2cc(C(=O)N3CCC(c4ccc(-c5cnn(C)c5)cc4)CC3)ccc2C)CC1 [Compound 181, N-(2-methyl-5-(4-(4-(1-methyl-1H-pyrazol-4-yl)phenyl)piperidine-1-carbonyl)phenyl)-1-propylpiperidine-4-carboxamide]
- IC50 [1]: 110 nM
- IC50 [2]: 41.7 nM
- inhibition at 10 µM [2]: 108%
- IC50 [3]: 32.4 nM
- IC50 [4]: > 10 µM

SMILES: COc1ccc(C(=O)N2CC(c3ccc(-c4cnn(C)c4)cc3)C2)cc1NC(=O)c1ccc(N2CCOCC2)nc1 [Compound 184, N-(2-methoxy-5-(3-(4-(1-methyl-1H-pyrazol-4-yl)phenyl)azetidine-1-carbonyl)phenyl)-6-morpholinonicotinamide]
- IC50 [1]: 123 nM
- IC50 [2]: 36.3 nM
- inhibition at 10 µM [2]: 105%
- IC50 [3]: 58.9 nM
- IC50 [4]: > 10 µM

SMILES: CCN1CCC(C(=O)Nc2cc(C(=O)N3CCC(c4ccc(-c5cnn(C)c5)cc4)CC3)ccc2C)C1 (stereo not shown) [Compound 185, 1-ethyl-N-(2-methyl-5-(4-(4-(1-methyl-1H-pyrazol-4-yl)phenyl)piperidine-1-carbonyl)phenyl)pyrrolidine-3-carboxamide]
- IC50 [1]: 501 nM
- IC50 [2]: 251 nM
- inhibition at 10 µM [2]: 101%
- IC50 [3]: ~501 nM
- IC50 [4]: > 10 µM

SMILES: CCCN1CCC(C(=O)Nc2cc(C(=O)N3CCC(c4ccc(-c5cnn(C)c5)cc4)CC3)ccc2C)C1 (stereo not shown) [Compound 186, N-(2-methyl-5-(4-(4-(1-methyl-1H-pyrazol-4-yl)phenyl)piperidine-1-carbonyl)phenyl)-1-propylpyrrolidine-3-carboxamide]
- IC50 [1]: 331 nM
- IC50 [2]: 95.5 nM
- inhibition at 10 µM [2]: 106%
- IC50 [3]: ~195 nM
- IC50 [4]: > 10 µM

SMILES: Cc1ccc(C(=O)N2CCC(c3ccc(-c4cnn(C)c4)cc3)CC2)cc1NC(=O)C1CN(C2CCCC2)C1 [Compound 187, 1-cyclopentyl-N-(2-methyl-5-(4-(4-(1-methyl-1H-pyrazol-4-yl)phenyl)piperidine-1-carbonyl)phenyl)azetidine-3-carboxamide]
- IC50 [1]: 302 nM
- IC50 [2]: 141 nM
- inhibition at 10 µM [2]: 103%
- IC50 [3]: ~282 nM
- IC50 [4]: > 10 µM

SMILES: Cc1ccc(C(=O)N2CCC(c3ccc(-c4cnn(C)c4)cc3)CC2)cc1NC(=O)C1CCN(CC(C)C)C1 (stereo not shown) [Compound 188, 1-isobutyl-N-(2-methyl-5-(4-(4-(1-methyl-1H-pyrazol-4-yl)phenyl)piperidine-1-carbonyl)phenyl)pyrrolidine-3-carboxamide]
- IC50 [1]: 170 nM
- IC50 [2]: 61.7 nM
- inhibition at 10 µM [2]: 104%
- IC50 [3]: 105 nM
- IC50 [4]: > 10 µM

SMILES: Cc1ccc(C(=O)N2CCC(c3ccc(-c4cnn(C)c4)cc3)CC2)cc1NC(=O)C1CCN(C2CCCC2)C1 (stereo not shown) [Compound 189, 1-cyclopentyl-N-(2-methyl-5-(4-(4-(1-methyl-1H-pyrazol-4-yl)phenyl)piperidine-1-carbonyl)phenyl)pyrrolidine-3-carboxamide]
- IC50 [1]: 309 nM
- IC50 [2]: 126 nM
- inhibition at 10 µM [2]: 102%
- IC50 [3]: 263 nM
- IC50 [4]: > 10 µM

SMILES: Cc1ccc(C(=O)N2CCC(c3ccc(-c4cnn(C)c4)cc3)CC2)cc1NC(=O)C1CN(CC(C)(C)C)C1 [Compound 190, N-(2-methyl-5-(4-(4-(1-methyl-1H-pyrazol-4-yl)phenyl)piperidine-1-carbonyl)phenyl)-1-neopentylazetidine-3-carboxamide]
- IC50 [1]: 251 nM
- IC50 [2]: 74.1 nM
- inhibition at 10 µM [2]: 102%
- IC50 [3]: 257 nM
- IC50 [4]: > 10 µM

SMILES: Cc1ccc(C(=O)N2CCC(c3ccc(-c4cnn(C)c4)cc3)CC2)cc1NC(=O)C1CN(C2CCCCC2)C1 [Compound 191, 1-cyclohexyl-N-(2-methyl-5-(4-(4-(1-methyl-1H-pyrazol-4-yl)phenyl)piperidine-1-carbonyl)phenyl)azetidine-3-carboxamide]
- IC50 [1]: 191 nM
- IC50 [2]: 69.2 nM
- inhibition at 10 µM [2]: 103%
- IC50 [3]: 141 nM
- IC50 [4]: 9.33 µM

SMILES: Cc1ccc(C(=O)N2CCC(c3ccc(-c4cnn(C)c4)cc3)CC2)cc1NC(=O)C1CCN(CC(C)(C)C)C1 (stereo not shown) [Compound 192, N-(2-methyl-5-(4-(4-(1-methyl-1H-pyrazol-4-yl)phenyl)piperidine-1-carbonyl)phenyl)-1-neopentylpyrrolidine-3-carboxamide]
- IC50 [1]: 170 nM
- IC50 [2]: 53.7 nM
- inhibition at 10 µM [2]: 105%
- IC50 [3]: 79.4 nM
- IC50 [4]: > 10 µM

SMILES: Cc1ccc(C(=O)N2CCC(c3ccc(-c4cnn(C)c4)cc3)CC2)cc1NC(=O)C1CN(C2CCC(C)C2)C1 (stereo not shown) [Compound 193, N-(2-methyl-5-(4-(4-(1-methyl-1H-pyrazol-4-yl)phenyl)piperidine-1-carbonyl)phenyl)-1-(3-methylcyclopentyl)azetidine-3-carboxamide]
- IC50 [1]: 178 nM
- IC50 [2]: 60.3 nM
- inhibition at 10 µM [2]: 109%
- IC50 [3]: 148 nM
- IC50 [4]: 7.08 µM

SMILES: Cc1ccc(C(=O)N2CCC(c3ccc(-c4cnn(C)c4)cc3)CC2)cc1NC(=O)C1CCN(C2CCC(C)C2)C1 (stereo not shown) [Compound 194, N-(2-methyl-5-(4-(4-(1-methyl-1H-pyrazol-4-yl)phenyl)piperidine-1-carbonyl)phenyl)-1-(3-methylcyclopentyl)pyrrolidine-3-carboxamide]
- IC50 [1]: 214 nM
- IC50 [2]: 117 nM
- inhibition at 10 µM [2]: 102%
- IC50 [3]: 158 nM
- IC50 [4]: ~8.71 µM

SMILES: Cc1ccc(C(=O)N2CCC(c3ccc(-c4cnn(C)c4)cc3)CC2)cc1NC(=O)C1CCN(CCC(C)C)C1 (stereo not shown) [Compound 195, 1-isopentyl-N-(2-methyl-5-(4-(4-(1-methyl-1H-pyrazol-4-yl)phenyl)piperidine-1-carbonyl)phenyl)pyrrolidine-3-carboxamide]
- IC50 [1]: 191 nM
- IC50 [2]: 69.2 nM
- inhibition at 10 µM [2]: 101%
- IC50 [3]: 110 nM
- IC50 [4]: 9.12 µM

SMILES: CCCCC(C)N1CC(C(=O)Nc2cc(C(=O)N3CCC(c4ccc(-c5cnn(C)c5)cc4)CC3)ccc2C)C1 (stereo not shown) [Compound 196, 1-(hexan-2-yl)-N-(2-methyl-5-(4-(4-(1-methyl-1H-pyrazol-4-yl)phenyl)piperidine-1-carbonyl)phenyl)azetidine-3-carboxamide]
- IC50 [1]: 282 nM
- IC50 [2]: 162 nM
- inhibition at 10 µM [2]: 97%
- IC50 [3]: 407 nM
- IC50 [4]: ~6.17 µM

SMILES: CCCCC(C)N1CCC(C(=O)Nc2cc(C(=O)N3CCC(c4ccc(-c5cnn(C)c5)cc4)CC3)ccc2C)C1 (stereo not shown) [Compound 197, 1-(hexan-2-yl)-N-(2-methyl-5-(4-(4-(1-methyl-1H-pyrazol-4-yl)phenyl)piperidine-1-carbonyl)phenyl)pyrrolidine-3-carboxamide]
- IC50 [1]: 309 nM
- IC50 [2]: 110 nM
- inhibition at 10 µM [2]: 98%
- IC50 [3]: 288 nM
- IC50 [4]: > 10 µM

SMILES: Cc1ccc(C(=O)N2CCC(c3ccc(-c4cnn(C)c4)cc3)CC2)cc1NC(=O)c1nccs1 [Compound 198, N-(2-methyl-5-(4-(4-(1-methyl-1H-pyrazol-4-yl)phenyl)piperidine-1-carbonyl)phenyl)thiazole-2-carboxamide]
- IC50 [1]: 372 nM
- IC50 [2]: 135 nM
- inhibition at 10 µM [2]: 100%
- IC50 [3]: 603 nM
- IC50 [4]: > 10 µM

SMILES: COc1ccc(-c2ccc(C3CCN(C(=O)c4ccc(C)c(NC(=O)c5ccc(NC(C)C)nc5)c4)CC3)cc2)cc1 [Compound 199, 6-(isopropylamino)-N-(5-(4-(4′-methoxy-[1,1′-biphenyl]-4-yl)piperidine-1-carbonyl)-2-methylphenyl)nicotinamide]
- IC50 [1]: 724 nM
- IC50 [2]: ~676 nM
- inhibition at 10 µM [2]: 59%
- IC50 [3]: 562 nM
- IC50 [4]: 0.617 µM

SMILES: COc1ccccc1-c1ccc(C2CCN(C(=O)c3ccc(C)c(NC(=O)c4ccc(NC(C)C)nc4)c3)CC2)cc1 [Compound 200, 6-(isopropylamino)-N-(5-(4-(2′-methoxy-[1,1′-biphenyl]-4-yl)piperidine-1-carbonyl)-2-methylphenyl)nicotinamide]
- IC50 [1]: 646 nM
- IC50 [2]: 646 nM
- inhibition at 10 µM [2]: 86%
- IC50 [3]: 708 nM
- IC50 [4]: 4.57 µM

SMILES: COc1cccc(-c2ccc(C3CCN(C(=O)c4ccc(C)c(NC(=O)c5ccc(NC(C)C)nc5)c4)CC3)cc2)c1 [Compound 201, 6-(isopropylamino)-N-(5-(4-(3′-methoxy-[1,1′-biphenyl]-4-yl)piperidine-1-carbonyl)-2-methylphenyl)nicotinamide]
- IC50 [1]: 380 nM
- IC50 [2]: 214 nM
- inhibition at 10 µM [2]: 86%
- IC50 [3]: 513 nM
- IC50 [4]: 0.933 µM

SMILES: COc1ccc(C(=O)N2CC(c3ccc(-c4cnn(C)c4)cc3)C2)cc1NC(=O)c1ccc(NC(C)C)nc1 [Compound 202, 6-(isopropylamino)-N-(2-methoxy-5-(3-(4-(1-methyl-1H-pyrazol-4-yl)phenyl)azetidine-1-carbonyl)phenyl)nicotinamide]
- IC50 [1]: 151 nM
- IC50 [2]: 52.5 nM
- inhibition at 10 µM [2]: 113%
- IC50 [3]: 58.9 nM
- IC50 [4]: > 10 µM
